Reference: patent publication US10106501B2, “Nuclear receptor modulators” (AbbVie Inc., priority 2015, dated 2018)

Molecular target: T1, chimeric human RORγ-Gal4 receptor (Homo sapiens, UniProt P51449)
T1 sequence (P51449 269-508 limits assumed): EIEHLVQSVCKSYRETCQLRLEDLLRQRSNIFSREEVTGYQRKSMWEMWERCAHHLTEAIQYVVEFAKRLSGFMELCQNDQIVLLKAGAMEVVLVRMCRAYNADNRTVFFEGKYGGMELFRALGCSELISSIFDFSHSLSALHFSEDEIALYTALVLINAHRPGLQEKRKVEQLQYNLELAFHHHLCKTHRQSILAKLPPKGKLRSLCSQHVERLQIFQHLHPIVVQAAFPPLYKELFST
Test: transient transactivation assay (RORγ-Gal4 luciferase reporter)
Assay type: cell-based
Conditions: Cos-7 cells transfected with RORγ-Gal4 and 5Gal4 pGL3 TK Luc reporter; overnight incubation; T0901317 at 10^-5 M as reference; read-out: IC50

| SMILES | IC50 |
| --- | --- |
| Cc1cc(C(F)(F)F)cc2c1nc(Cc1c(Cl)ccc(CN3CCC(C(C)O)CC3)c1Cl)n2C (centres unmarked) [BW-13] | 100 to 500 nM |
| Cc1cc(C(F)(F)F)cc2c1nc(Cc1c(Cl)ccc(CN3CCC(CO)CC3)c1Cl)n2C [BW-14] | 100 to 500 nM |
| Cc1cc(C(F)(F)F)cc2c1nc(Cc1c(Cl)ccc(CN3CCN(CC(F)(F)F)CC3)c1Cl)n2C [BW-15] | 100 to 500 nM |
| Cc1cc(C(F)(F)F)cc2c1nc(Cc1c(Cl)ccc(CN3CCC(N(C)C)CC3)c1Cl)n2C [BW-16] | 1000 to 10000 nM |
| Cc1cc(C(F)(F)F)cc2c1nc(Cc1c(Cl)ccc(CN3CCCC(C)(O)C3)c1Cl)n2C (centres unmarked) [BW-17] | 100 to 500 nM |
| CCN(CCO)Cc1ccc(Cl)c(Cc2nc3c(C)cc(C(F)(F)F)cc3n2C)c1Cl [BW-18] | 500 to 1000 nM |
| Cn1c(Cc2c(Cl)ccc(C(=O)N3CCOCC3)c2Cl)nc2c(C(F)(F)F)cc(Br)cc21 [CE, (3-((6-bromo-1-methyl-4-(trifluoromethyl)-1H-benzo[d]imidazol-2-yl)methyl)-2,4-dichlorophenyl)(morpholino)methanone] | 100 to 500 nM |
| Cn1c(Cc2c(Cl)ccc(C(=O)N3CCOCC3)c2Cl)nc2c(C(F)(F)F)cc(C#N)cc21 [CF, 2-(2,6-dichloro-3-(morpholine-4-carbonyl)benzyl)-1-methyl-4-(trifluoromethyl)-1H-benzo[d]imidazole-6-carbonitrile] | 500 to 1000 nM |
| CCn1c(Cc2c(Cl)ccc(C(=O)N3CCOCC3)c2Cl)nc2c(C)cc(C#N)cc21 [CG, 2-(2,6-dichloro-3-(morpholine-4-carbonyl)benzyl)-1-ethyl-4-methyl-1H-benzo[d]imidazole-6-carbonitrile] | 500 to 1000 nM |
| Cc1cc(C#N)cc2c1nc(Cc1c(Cl)ccc(C(=O)N3CCOCC3)c1Cl)n2C(C)C [CH, 2-(2,6-dichloro-3-(morpholine-4-carbonyl)benzyl)-1-isopropyl-4-methyl-1H-benzo[d]imidazole-6-carbonitrile] | < 100 nM |
| Cc1cc(C#N)nc2c1nc(Cc1c(Cl)ccc(C(=O)N3CCOCC3)c1Cl)n2C [CI, 2-(2,6-dichloro-3-(morpholine-4-carbonyl)benzyl)-3,7-dimethyl-3H-imidazo[4,5-b]pyridine-5-carbonitrile] | 1000 to 10000 nM |
| Cn1c(Cc2c(Cl)ccc(C(=O)N3CCOCC3)c2Cl)cc2c(Cl)cc(C#N)cc21 [CJ, 4-chloro-2-(2,6-dichloro-3-(morpholine-4-carbonyl)benzyl)-1-methyl-1H-indole-6-carbonitrile] | 1000 to 10000 nM |
| Cn1c(Cc2c(Cl)ccc(C(=O)N3CCOCC3)c2Cl)cc2cccnc21 [CK, (2,4-dichloro-3-((1-methyl-1H-pyrrolo[2,3-b]pyridin-2-yl)methyl)phenyl)(morpholino)methanone] | 1000 to 10000 nM |
| Cc1cc(C#N)nc2c1cc(Cc1c(Cl)ccc(C(=O)N3CCC(O)CC3)c1Cl)n2C [CL-1] | < 100 nM |
| Cc1cc(C#N)nc2c1cc(Cc1c(Cl)ccc(C(=O)N3CCC(C4COC4)CC3)c1Cl)n2C [CL-2] | < 100 nM |
| Cc1cc(Cl)nc2c1cc(Cc1c(Cl)ccc(C(=O)N3CCOCC3)c1Cl)n2C [CM1, (2,4-dichloro-3-((6-chloro-1,4-dimethyl-1H-pyrrolo[2,3-b]pyridin-2-yl)methyl)phenyl)(morpholino)methanone] | < 100 nM |
| Cc1cc(C(F)(F)F)nc2c1cc(Cc1c(Cl)ccc(C(=O)N3CCOCC3)c1Cl)n2C [CM, (2,4-dichloro-3-((1,4-dimethyl-6-(trifluoromethyl)-1H-pyrrolo[2,3-b]pyridin-2-yl)methyl)phenyl)(morpholino)methanone] | < 100 nM |
| Cn1c(C(=O)c2c(Cl)ccc(C(=O)N3CCOCC3)c2Cl)cc2ncc(C(F)(F)F)cc21 [CP, (2,4-dichloro-3-(1-methyl-6-(trifluoromethyl)-1H-pyrrolo[3,2-b]pyridine-2-carbonyl)phenyl)(morpholino)methanone] | 1000 to 10000 nM |
| Cc1cc(C(F)(F)F)cn2c(C)c(Cc3c(Cl)ccc(C(=O)N4CCC(CCO)CC4)c3Cl)nc12 [CT-2] | 100 to 500 nM |
| Cc1cc(C(F)(F)F)cn2c(C)c(Cc3c(Cl)ccc(C(=O)N4CCC(C(C)(C)O)CC4)c3Cl)nc12 [CT-3] | < 100 nM |
| Cc1cc(C(F)(F)F)cn2c(C)c(Cc3c(Cl)ccc(C(=O)N4CCC(O)C4)c3Cl)nc12 (centres unmarked) [CT-4] | > 10000 nM |
| Cc1cc(C(F)(F)F)cn2c(C)c(Cc3c(Cl)ccc(C(=O)N4CCC(N(C)C)CC4)c3Cl)nc12 [CT-5] | 500 to 1000 nM |
| COC1CCN(C(=O)c2ccc(Cl)c(Cc3nc4c(C)cc(C(F)(F)F)cn4c3C)c2Cl)CC1 [CT-6] | < 100 nM |
| COCCC1CCN(C(=O)c2ccc(Cl)c(Cc3nc4c(C)cc(C(F)(F)F)cn4c3C)c2Cl)CC1 [CT-7] | < 100 nM |

| SMILES | IC50 |
| --- | --- |
| Cc1cc(C(F)(F)F)cn2c(C)c(Cc3c(Cl)ccc(C(=O)N4CCC(C5COC5)CC4)c3Cl)nc12 [CT-8] | < 100 nM |
| Cc1cc(C(F)(F)F)cn2c(C)c(Cc3c(Cl)ccc(C(=O)N4CCN(C5COC5)CC4)c3Cl)nc12 [CT-9] | 100 to 500 nM |
| Cc1cc(C(F)(F)F)cn2c(C)c(Cc3c(Cl)ccc(C(=O)N4CCC(C(C)O)CC4)c3Cl)nc12 (centres unmarked) [CT-11] | 100 to 500 nM |
| Cc1cc(C#N)cn2c(C)c(Cc3c(Cl)ccc(C(=O)N4CCC(C5COC5)CC4)c3Cl)nc12 [CV-5] | 100 to 500 nM |
| Cc1cc(C(F)(F)F)nn2c(C)c(Cc3c(Cl)ccc(C(=O)N4CCOCC4)c3Cl)nc12 [CZ, (2,4-dichloro-3-((3,8-dimethyl-6-(trifluoromethyl)imidazo[1,2-b]pyridazin-2-yl)methyl)phenyl)(morpholino)methanone] | < 100 nM |
| Cc1cc(C(F)(F)F)nn2c(C)c(C(=O)c3c(Cl)ccc(C(=O)N4CCC(CC(=O)O)CC4)c3Cl)nc12 [CZ-1A, 2-(1-(2,4-dichloro-3-(3,8-dimethyl-6-(trifluoromethyl)imidazo[1,2-b]pyridazine-2-carbonyl)benzoyl)piperidin-4-yl)acetic acid] | 100 to 500 nM |
| Cc1cc(C(F)(F)F)nn2c(C)c(Cc3c(Cl)ccc(C(=O)N4CCN(C5COC5)CC4)c3Cl)nc12 [CZ-1] | 100 to 500 nM |
| Cc1cc(C(F)(F)F)nn2c(C)c(Cc3c(Cl)ccc(C(=O)N4CCC(C5COC5)CC4)c3Cl)nc12 [CZ-2] | < 100 nM |
| Cc1cc(C(F)(F)F)nn2c(C)c(Cc3c(Cl)ccc(C(=O)N4CCN(S(C)(=O)=O)[C@H](C)C4)c3Cl)nc12 [CZ-3] | 100 to 500 nM |
| Cc1cc(C(F)(F)F)cc2c1cc(Cc1c(Cl)ccc(C(=O)N3CCOCC3)c1Cl)n2C [D, (2,4-dichloro-3-((1,4-dimethyl-6-(trifluoromethyl)-1H-indol-2-yl)methyl)phenyl)(morpholino)methanone] | < 100 nM |
| Cc1cc(C#N)nn2c(C)c(Cc3c(Cl)ccc(C(=O)N4CCOCC4)c3Cl)nc12 [DA, 2-(2,6-dichloro-3-(morpholine-4-carbonyl)benzyl)-3,8-dimethylimidazo[1,2-b]pyridazine-6-carbonitrile] | 1000 to 10000 nM |
| Cc1cc2nc(Cc3c(Cl)ccc(C(=O)N4CCOCC4)c3Cl)c(C)n2nc1C#N [DB, 2-(2,6-dichloro-3-(morpholine-4-carbonyl)benzyl)-3,7-dimethylimidazo[1,2-b]pyridazine-6-carbonitrile] | 1000 to 10000 nM |
| Cc1cc(C(F)(F)F)nc2c1nc(Cc1c(Cl)ccc(C(=O)N3CCOCC3)c1Cl)n2C [DC, (2,4-dichloro-3-((3,7-dimethyl-5-(trifluoromethyl)-3H-imidazo[4,5-b]pyridin-2-yl)methyl)phenyl)(morpholino)methanone] | 1000 to 10000 nM |
| Cc1nn(Cc2c(Cl)ccc(C(=O)N3CCC(C4COC4)CC3)c2Cl)c2c(C)cc(C(F)(F)F)cc12 [DD-1, (2,4-dichloro-3-((3,7-dimethyl-5-(trifluoromethyl)-1H-indazol-1-yl)methyl)phenyl)(4-(oxetan-3-yl)piperidin-1-yl)methanone] | < 100 nM |
| Cc1nn(Cc2c(Cl)ccc(C(=O)N3CCC(CC(=O)O)CC3)c2Cl)c2c(C)cc(C(F)(F)F)cc12 [DE, 2-(1-(2,4-dichloro-3-((3,7-dimethyl-5-(trifluoromethyl)-1H-indazol-1-yl)methyl)benzoyl)piperidin-4-yl)acetic acid] | < 100 nM |
| Cc1cc(C(F)(F)F)cc2c(C)n(Cc3c(Cl)ccc(C(=O)N4CCC(CC(=O)O)CC4)c3Cl)nc12 [DG, 2-(1-(2,4-dichloro-3-((3,7-dimethyl-5-(trifluoromethyl)-2H-indazol-2-yl)methyl)benzoyl)piperidin-4-yl)acetic acid] | < 100 nM |
| Cc1cn(Cc2c(Cl)ccc(C(=O)N3CC[C@H](C(=O)O)[C@H](C)C3)c2Cl)c2c(C)cc(C(F)(F)F)cc12 [DH1-1] | < 100 nM |
| Cc1cn(Cc2c(Cl)ccc(C(=O)N3CC[C@@H](C(=O)O)[C@@H](C)C3)c2Cl)c2c(C)cc(C(F)(F)F)cc12 [DH1-2] | < 100 nM |
| Cc1cn(Cc2c(Cl)ccc(C(=O)N3CCC(C(=O)O)CC3)c2Cl)c2c(C)cc(C(F)(F)F)cc12 [DH, 1-(2,4-dichloro-3-((3,7-dimethyl-5-(trifluoromethyl)-1H-indol-1-yl)methyl)benzoyl)piperidine-4-carboxylic acid] | < 100 nM |
| Cc1cn(Cc2c(Cl)ccc(C(=O)N3CCC(CC(=O)O)CC3)c2Cl)c2c(C)cc(C(F)(F)F)cc12 [DI, 2-(1-(2,4-dichloro-3-((3,7-dimethyl-5-(trifluoromethyl)-1H-indol-1-yl)methyl)benzoyl)piperidin-4-yl)acetic acid] | < 100 nM |
| Cc1cn(C(=O)c2c(Cl)ccc(C(=O)N3CCC(C(=O)O)CC3)c2Cl)c2c(C)cc(C(F)(F)F)cc12 [DJ1-1] | < 100 nM |
| Cc1cn(C(=O)c2c(Cl)ccc(C(=O)N3CC[C@H](C(=O)O)[C@H](C)C3)c2Cl)c2c(C)cc(C(F)(F)F)cc12 [DJ1-2] | < 100 nM |
| Cc1cn(C(=O)c2c(Cl)ccc(C(=O)N3CC[C@@H](C(=O)O)[C@@H](C)C3)c2Cl)c2c(C)cc(C(F)(F)F)cc12 [DJ1-3] | < 100 nM |
